From US6485755B1, “Methods of using electron active compounds for managing cancer” (Marantech Holding, priority 2000, dated 2002)
Read-outs that look alike come from different tables or passages of the source.

Experiments:
[1] = single IV injection at about 40 ppm of human blood; cited from earlier work
[2] = persons not prone to silver allergies
Source text: Preferred routes of administration include topically and application to mucosa. Application can be made, for example, digitally or using a suitable applicator.

[3] = system: PANC-i; settings: estimated
Procedure: (§1) An independent laboratory performed cytotoxicity tumor cell proliferation studies and evaluations. A culture of leukemia K562 was tested in vitro against media concentrations of tetrasilver tetroxide at: 0.5, 1,5, 10, 50, 100, 500 and 1000 ppm.
(§2) The tetroxide was dispersed in pure dimethyl sulfoxide and then diluted with Holipharm NPS buffer PH=7.4 (Holipharm International Co., Wilmington, Del.) in culture media to achieve the aforesaid final assay concentrations. The acronym NPS refers to non phosphate non saline. The culture media comprised RPMI 1640, 90% and fetal bovine serum, 10%. The cancer cultures were obtained from a cell line provided by the American Type Culture Collection (ATCC) and were incubated at 37° C. with 5% CO2 in air atmosphere. The culture was a human chronic myelogenous leukemia, of cell line source ATCCCCL-243.
(§3) As for the actual evaluation, cell proliferation analysis was based on the ability of viable cells to cause alamar blue to change from oxidized (non-fluorescent, blue) to reduced (fluorescent, red) form. Details of the procedure are described in an article by S. Ansar Ahmed et. al. in the Journal of Immunological Methods 170 (1994).
(§4) The ^aIC50 (50% Inhibition Concentration) is the test compound concentration where the increase from times in the number or mass of treated cells was only 50% as much as the corresponding increase in the vehicle-control at the end of experiment. The bTGI (Total Growth Inhibition) is the test compound concentration where the number or mass of treated cells at the end of experiment was equal to that at time. The CLC (50% Lethal Concentration) is the test compound concentration where the number or mass of treated cells at the end of experiment was half that at time.

[4] = system: DLD-i; settings: estimated
Procedure: as §1, §2, §3, §4

[5] = system: MCF-7; settings: MCF-7, estimated
Procedure: as §1, §2, §3, §4

[6] = system: H33HJ-.JA1; settings: H33HJ-.JA1, estimated
Procedure: as §1, §2, §3, §4

[7] = system: T47D; settings: estimated
Procedure: as §1, §2, §3, §4

[8] = system: pc-6; settings: pc-6, estimated
Procedure: as §1, §2, §3, §4

[9] = system: human malignant melanoma cell line SK-MEL-5
Procedure: as §1, §2, §3, §4

[10] = system: MIA PaCa2; settings: MIA PaCa2, estimated
Procedure: as §1, §2, §3, §4

[11] = system: U937; settings: U937, estimated
Procedure: as §1, §2, §3, §4

[12] = system: A549; settings: A549, estimated
Procedure: as §1, §2, §3, §4

[13] = system: A498; settings: A498, estimated
Procedure: as §1, §2, §3, §4

[14] = system: KATO III; settings: estimated
Procedure: as §1, §2, §3, §4

[15] = system: leukemia K562
Procedure: as §1, §2, §3, §4

[16] = system: HL-60; settings: HL-60, estimated
Procedure: as §1, §2, §3, §4

[17] = system: HeDG2; settings: HeDG2, estimated
Procedure: as §1, §2, §3, §4

[18] = system: PC-3; settings: PC-3, estimated
Procedure: as §1, §2, §3, §4

[19] = system: breast cancer
Procedure: A subject group was formed of thirty female residents of Central America aged 32 to 52 years who had been diagnosed as having breast cancer. […] The diagnosis of each subject was confirmed by biopsy and a mammogram was acquired from each subject.
Each subject was evaluated daily by an oncologist(s) and each received a single dosage of tetrasilver tetroxide by IV, i.e., intravenously, sufficient to provide a concentration in the bloodstream of 10 ppm. One-half of the patients received the dosage in 10 minutes by IV injection. The other half of the subjects received the dosage by IV injection over a 4-hour period.
As discussed below, the subjects were arranged in three histology groups. Within each histologic group, 50% of the subjects received the dosage via the 10 minute IV and the other 50% of the subjects received the dosage over the 4 hour period of time.
Prior to initiating treatment, the tetrasilver tetroxide was subjected a quality assurance protocol to reduce side effects.
Group I: Group I included 10 patients who had been diagnosed as having infiltrative canalicular breast carcinoma.
A 1 cm diameter biopsy fragment was sent to a pathologist laboratory.
Group II: Group II included 10 subjects were diagnosed as having ductile carcinoma special type, medular breast cancer.
Group III: Group III included ten patients diagnosed as having infiltrative lobular breast cancer.
For each of the three groups, the dosage was 10 ppm for every subject. The patients had 24-hour evaluations by three oncologists who were each responsible for an 8-hour time period. Every 4 hours, a professional nurse acquired vital signs from the subjects. Twenty-four hour hemodynamic monitoring was performed. The subjects walked 2 hours after they received the dosage and they were prescribed a free diet. Every twenty-four hours, urine was collected. Every seven days, the following laboratory tests were performed: a complete blood count, hemoglobin, hematocracity, vcm, vhcm, complete red blood cells, complete white blood cells, albumin, bilirubin, calcium, and cholesterol, creatine, glucose, ldh, potassium, sodium, triglyceride, uric acid, urea nitrogen, AST and SGOT.

[20] = compared with Ag(I) compounds; cited from earlier work
[21] = system: gynecological yeast infection; settings: 10 ppm silver tetroxide and 40 ppm sodium persulfate; cited from earlier work
[22] = system: athlete's foot; settings: solution of 100 ppm of the composition; cited from earlier work
[23] = system: toenail fungus; settings: 25% suspension of the composition; cited from earlier work
[24] = Group III, day 20 after treatment

[Ag+].[Ag+].[Ag+].[Ag+].[O-2].[O-2].[O-2].[O-2] [tetrasilver tetroxide]
adverse effect on the liver [1]: hepatomegaly | liver function [1]: no reported loss of liver function | ill effects or irritation on application to the skin [2]: without any ill effects or evidence of irritation | IC50 [3]: 4.8 ppm | LC50 [3]: 8.6 ppm | TGI [3]: 6.4 ppm | IC50 [4]: 2.5 ppm | LC50 [4]: 3.6 ppm | TGI [4]: 3.0 ppm | IC50 [5]: 3.0 ppm | LC50 [5]: 5.0 ppm | TGI [5]: 3.9 ppm | IC50 [6]: 0.79 ppm | LC50 [6]: 3.8 ppm | TGI [6]: 1.3 ppm | IC50 [7]: 1.1 ppm | LC50 [7]: 2.6 ppm | TGI [7]: 1.6 ppm | IC50 [8]: 0.9 ppm | LC50 [8]: 1.1 ppm | TGI [8]: 1.0 ppm | IC50 (50% Inhibition Concentration) [9]: 3.7 ppm | LC50 (50% Lethal Concentration) [9]: 6.5 ppm | TGI (Total Growth Inhibition) [9]: 4.9 ppm | IC50 [10]: 2.0 ppm | LC50 [10]: 8.1 ppm | TGI [10]: 4.0 ppm | IC50 [11]: 1.3 ppm | LC50 [11]: 3.6 ppm | TGI [11]: 2.2 ppm | IC50 [12]: 4.8 ppm | LC50 [12]: 7.0 ppm | TGI [12]: 5.8 ppm | IC50 [13]: 1.8 ppm | LC50 [13]: 3.1 ppm | TGI [13]: 2.4 ppm | IC50 [14]: 3.2 ppm | LC50 [14]: 4.1 ppm | TGI [14]: 3.6 ppm | IC50 (50% Inhibition Concentration) [15]: 2.2 ppm | LC50 (50% Lethal Concentration) [15]: 6.0 ppm | TGI (Total Growth Inhibition) [15]: 4.6 ppm | IC50 [16]: 2.1 ppm | LC50 [16]: 4.6 ppm | TGI [16]: 3.1 ppm | IC50 [17]: 2.6 ppm | LC50 [17]: 4.7 ppm | TGI [17]: 3.5 ppm | IC50 [18]: 7.7 ppm | LC50 [18]: 25 ppm | TGI [18]: 14 ppm | sodium, potassium and magnesium blood levels ([19]; Group I): decreased | nodule on palpation ([19]; Group I infiltrative canalicular breast carcinoma, single IV dose 10 ppm in bloodstream, 12 days after treatment): the nodule was no longer discernable by touch | patients with increase in body temperature and slight liver enlargement ([19]; Group I, 10 minute IV injection subgroup): Three of the patients | biopsies reported as normal mammary tissue ([19]; Group I, biopsy ordered 19 days after treatment): 100% | liver function ([19]; Group I, patients with liver enlargement): not affected | liver function ([19]; Group II): not affected | sodium, potassium and magnesium blood levels ([19]; Group II): decreased | average tumor size ([19]; Group II medular breast cancer, 36 hours after treatment, formerly 10 cm): 8.4 cm | biopsy reported as normal mammary tissue ([19]; Group II, biopsy after 24 days): 90% | tumor mass ([19]; Group II, day 16 after treatment): the huge tumor mass was gone | patients with increase in body temperature and slight liver enlargement ([19]; Group II, direct IV injection subgroup): One patient | sodium, potassium and magnesium blood levels ([19]; Group III): deceased | average nodule size ([19]; Group III infiltrative lobular breast cancer, 5 days after treatment, from 4 cm): 2.6 cm | biopsies reported as normal mammary tissue ([19]; Group III, biopsy ordered day 29 after treatment): 80% | average nodule size [19, 24]: 1 cm | remission of retracted nipples, nipple bleeding, distorted areola, mass attachment [19, 24]: 90% | patients with increase in body temperature or slight liver enlargement ([19]; Group III, direct injection subgroup): None of the patients | period to apparent cure ([19]; ductile carcinoma special type, medular breast carcinoma (Group II)): 30 days | period to apparent cure ([19]; infiltrative breast carcinoma (Group I)): 24 days | period to apparent cure ([19]; infiltrative lobular breast cancer (Group III)): 30 days | staining of organic matter such as skin [20]: did not stain organic matter such as skin | outcome of gynecological yeast infection [21]: curing | outcome of athlete's foot, single case [22]: cure | outcome of toenail fungus, single case [23]: cure
